From US10239832B2, “N-(1-hydroxy-3-(pyrrolidinyl)propan-2-yl)pyrrolidine-3-carboxamide derivatives as glucosylceramide synthase inhibitors” (BIOMARIN PHARMACEUTICAL INC., priority 2013, dated 2019)

molecular target: T1, GCS (Canis lupus familiaris, UniProt A0A8I3MXG6); experiment: GCS enzymatic assay (MDCK cell lysate, NBD-ceramide to glucosylceramide, LC/MS); format: biochemical, canine; details: Table 2; class symbols A, B, C; the table does not say which of the assays; read-out: Data Range (IC50 values)
T1 construct: endogenous in cells; host or cells: MDCK (Madin-Darby canine kidney) cells, whole-cell lysate
T1 sequence (A0A8I3MXG6 1-394): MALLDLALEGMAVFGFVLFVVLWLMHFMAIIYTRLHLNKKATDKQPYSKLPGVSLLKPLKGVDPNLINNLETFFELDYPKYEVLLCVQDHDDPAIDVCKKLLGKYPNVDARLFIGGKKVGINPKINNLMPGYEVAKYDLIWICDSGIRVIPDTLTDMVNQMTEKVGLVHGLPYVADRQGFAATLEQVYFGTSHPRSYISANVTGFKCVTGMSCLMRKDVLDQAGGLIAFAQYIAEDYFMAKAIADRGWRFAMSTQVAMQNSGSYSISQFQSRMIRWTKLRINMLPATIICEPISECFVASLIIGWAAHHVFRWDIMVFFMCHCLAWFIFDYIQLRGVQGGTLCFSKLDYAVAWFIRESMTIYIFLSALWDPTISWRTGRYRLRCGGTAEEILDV
Method in brief: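 IC50 or percent inhibition came from LC/MS/MS (ESI+, MRM) of NBD-ceramide and glucosylceramide, with tolbutamide as internal standard. The reaction used MDCK (canine) cell lysate as the enzyme source and was ended with acetonitrile. Mock wells received 0.1% DMSO.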

Row | SMILES | IC50 [nM]
1 | N#Cc1ccc(N2CC[C@@H](C(=O)N[C@H](CN3CCCC3)[C@H](O)c3ccc(OC4CC4)c(Cl)c3)C2)cc1 [Compound 152, (R)-N-((1R,2R)-1-(3-chloro-4-cyclopropoxyphenyl)-1-hydroxy-3-(pyrrolidin-1-yl)propan-2-yl)-1-(4-cyanophenyl)pyrrolidine-3-carboxamide] | 100 to 1000
2 | O=C(N[C@H](CN1CCCC1)[C@H](O)c1cc(F)c2c(c1)OCCO2)[C@@]1(O)CCN(c2ccc(Cl)cc2)C1 [Compound 154C, (R)-1-(4-chlorophenyl)-N-((1R,2R)-1-(8-fluoro-2,3-dihydrobenzo[b][1,4]dioxin-6-yl)-1-hydroxy-3-(pyrrolidin-1-yl)propan-2-yl)-3-hydroxypyrrolidine-3-carboxamide] | 100 to 1000
3 | O=C(N[C@H](CN1CCCC1)[C@H](O)c1ccc(Cl)cc1)[C@@H]1CCN(c2ccc(Cl)cc2)C1 [Compound 156, (R)-1-(4-chlorophenyl)-N((1R,2R)-1-(4-chlorophenyl)-1-hydroxy-3-(pyrrolidin-1-yl)propan-2-yl)pyrrolidine-3-carboxamide] | 100 to 1000
4 | O=C(N[C@H](CN1CCC1)[C@H](O)c1ccc(OC2CC2)cc1)[C@@H]1CCN(c2ccc3cc(F)ccc3c2)C1 [Compound 159, (R)-N-((1R,2R)-3-(azetidin-1-yl)-1-(4-cyclopropoxyphenyl)-1-hydroxypropan-2-yl)-1-(6-fluoronaphthalen-2-yl)pyrrolidine-3-carboxamide] | 30 to 100
5 | O=C(N[C@H](CN1CCC1)[C@H](O)c1ccc(OC2CC2)cc1)[C@H]1CCN(c2ccc3cc(F)ccc3c2)C1 [Compound 159C, (S)-N-((1R,2R)-3-(azetidin-1-yl)-1-(4-cyclopropoxyphenyl)-1-hydroxypropan-2-yl)-1-(6-fluoronaphthalen-2-yl)pyrrolidine-3-carboxamide] | 100 to 1000
6 | O=C(N[C@H](CN1CCCC1)[C@H](O)c1ccc(OC(F)F)cc1)[C@@H]1CCN(c2ccc(Cl)cc2)C1 [Compound 160, (R)-1-(4-chlorophenyl)-N-((1R,2R)-1-(4-(difluoromethoxy)phenyl)-1-hydroxy-3-(pyrrolidin-1-yl)propan-2-yl)pyrrolidine-3-carboxamide] | 30 to 100

More lines, now with the values ahead:

Row | IC50 [nM] | SMILES
7 | 1 to 30 | Cc1ccc(N2CC[C@@H](C(=O)N[C@H](CN3CCCC3)[C@H](O)c3ccc(OC4CC4)c(Cl)c3)C2)cc1 [Compound 153, (R)-N-((1R,2R)-1-(3-chloro-4-cyclopropoxyphenyl)-1-hydroxy-3-(pyrrolidin-1-yl)propan-2-yl)-1-(p-tolyl)pyrrolidine-3-carboxamide]
8 | 1 to 30 | O=C(N[C@H](CN1CCCC1)[C@H](O)c1cc(F)c2c(c1)OCCO2)[C@]1(O)CCN(c2ccc(Cl)cc2)C1 [Compound 154, (S)-1-(4-chlorophenyl)-N-((1R,2R)-1-(8-fluoro-2,3-dihydrobenzo[b][1,4]dioxin-6-yl)-1-hydroxy-3-(pyrrolidin-1-yl)propan-2-yl)-3-hydroxypyrrolidine-3-carboxamide]
9 | 1 to 30 | O=C(N[C@H](CN1CCCC1)[C@H](O)c1ccc(OC2CC2)cc1)[C@@H]1CCN(c2ccc(Cl)cc2)C1 [Compound 155, (R)-1-(4-chlorophenyl)-N-((1R,2R)-1-(4-cyclopropoxyphenyl)-1-hydroxy-3-(pyrrolidin-1-yl)propan-2-yl)pyrrolidine-3-carboxamide]
10 | 1 to 30 | O=C(N[C@H](CN1CCCC1)[C@H](O)c1ccc(OC2CC2)cc1)[C@@H]1CCN(c2ccc3ccsc3c2)C1 [Compound 157, (R)-1-(benzo[b]thiophen-6-yl)-N-((1R,2R)-1-(4-cyclopropoxyphenyl)-1-hydroxy-3-(pyrrolidin-1-yl)propan-2-yl)pyrrolidine-3-carboxamide]
11 | 30 to 100 | O=C(N[C@H](CN1CCC1)[C@H](O)c1ccc(OC2CC2)cc1)[C@@H]1CCN(c2ccc3ccsc3c2)C1 [Compound 158, (R)-N-((1R,2R)-3-(azetidin-1-yl)-1-(4-cyclopropoxyphenyl)-1-hydroxypropan-2-yl)-1-(benzo[b]thiophen-6-yl)pyrrolidine-3-carboxamide]
12 | 1 to 30 | O=C(N[C@H](CN1CCCC1)[C@H](O)c1ccc(OC(F)F)cc1)[C@@H]1CCN(c2ccccc2)C1 [Compound 161, (R)-N-((1R,2R)-1-(4-(difluoromethoxy)phenyl)-1-hydroxy-3-(pyrrolidin-1-yl)propan-2-yl)-1-phenylpyrrolidine-3-carboxamide]
13 | 1 to 30 | O=C(N[C@H](CN1CCCC1)[C@H](O)c1ccc(OC2CC2)cc1)[C@@H]1CCN(c2ccc3cc(F)ccc3c2)C1 [Compound 162, (R)-N-((1R,2R)-1-(4-cyclopropoxyphenyl)-1-hydroxy-3-(pyrrolidin-1-yl)propan-2-yl)-1-(6-fluoronaphthalen-2-yl)pyrrolidine-3-carboxamide]
